In article PMC5547389, “Structure-activity relationships and molecular docking studies of chromene and chromene based azo chromophores: A novel series of potent antimicrobial and anticancer agents” (EXCLI Journal, 2017):
Converted amounts (≈) assume the structure as drawn.

Columns and labels:
[1] = system: Human colon carcinoma (HCT-116); experiment: Cytotoxic screening; type: cell-based; details: HCT-116; for IC50: Homo sapiens, read-out: IC50 HCT-116
Experimental: (§1) Human colon carcinoma (HCT-116), human hepatocellular carcinoma (HEPG-2), adenocarcinomic human alveolar basal epithelial cell (A-549), and human breast adenocarcinoma (MCF-7) cell lines were obtained from the American Type Culture Collection (ATCC, Rockville, MD). The cells were grown on RPMI-1640 medium supplemented with 10 % inactivated fetal calf serum and 50 µg/ml gentamycin. The cells were maintained at 37 °C in a humidified atmosphere with 5 % CO2 and were subcultured two to three times a week. Potential cytotoxicity of the compounds was evaluated on tumor cells using the method of Gangadevi and Muthumary (2007[21]) (Klancnik et al., 2010[36]). The cells were grown as monolayers in growth RPMI-1640. The monolayers of 104 cells adhered at the bottom of the wells in a 96-well microtiter plate incubated for 24 h at 37 °C in a humidified incubator with 5 % CO2. The monolayers were then washed with sterile phosphate buffered saline (0.01 M pH 7.2) and simultaneously the cells were treated with 100 µL from different dilutions of tested sample in fresh maintenance medium and incubated at 37 °C. A control of untreated cells was made in the absence of tested sample. Positive controls containing doxorubicin were also tested as a reference drug for comparison. Six wells were used for each concentration of the test sample. Every 24 hours an observation under the inverted microscope was made. The number of the surviving cells was determined by staining the cells with crystal violet (Mosmann, 1983[42]; Gangadevi and Muthumary, 2007[21]) followed by cell lysing using 33 % glacial acetic acid and reading the absorbance at 590 nm using microplate reader (SunRise, TECAN, Inc, USA) after well mixing. The absorbance values from untreated cells were considered as 100 % proliferation. The number of viable cells was determined using microplate reader as previously mentioned before and the percentage of […] was calculated as [1-(ODt/ODc)] x 100 % where ODt is the mean optical density of wells treated with the tested sample and ODc is the mean optical density of untreated cells. The relation between surviving cells and drug concentration was plotted to get the survival curve of each tumor cell line after treatment with the specified compound. The 50 % inhibitory concentration (IC50), the concentration required to cause toxic effects in 50 % of intact cells, was estimated from graphic plots.
(§2) The in vitro cytotoxic activity was performed by MTT assay (Mosmann, 1983[42]; Alley et al., 1988[6]) against three human carcinoma cell lines: Human colon carcinoma (HCT-116), human breast adenocarcinoma (MCF-7), and human hepatocellular carcinoma (HEPG-2).

[2] = system: human breast adenocarcinoma (MCF-7); experiment: Cytotoxic screening; type: cell-based; details: for IC50: Homo sapiens, MCF7, read-out: IC50 MCF-7
Experimental: as §1, §2

[3] = system: human hepatocellular carcinoma (HEPG-2); experiment: Cytotoxic screening; type: cell-based; details: HepG2, read-out: IC50 HepG-2
Experimental: as §1, §2

[4] = system: Syncephalastrum racemosum (RCMB 05922); experiment: Well diffusion assay (inhibition zone); type: cell-based; details: RCMB05922, 5 mg/mL in DMSO, fungi, read-out: Inhibition Zone (IZ) diameter, S.R
Experimental: (§3) The microorganism inoculums were uniformly spread using sterile cotton swabs on a sterile Petri dish malt extract agar (for fungi) and nutrient agar (for bacteria). One hundred cubic millimeters of each sample was added to each well (10 mm-diameter holes were cut in the agar gel, 20 mm apart from one another). The systems were incubated for 24-48 h at 37 °C (for bacteria) and at 28 °C (for fungi). After incubation, the microorganism growth was observed. Inhibition zones of the bacterial and fungal growth were measured in millimeters. Tests were performed in triplicate (Cappuccino and Sherman, 1999[12]; Vanden Berghe and Vlientinck, 1991[62]).
(§4) All the newly synthesized compounds described in this report were screened for both antibacterial and antifungal activity via the reported agar diffusion well method (Vanden Berghe and Vlietinck, 1991[62]). The inhibition zones and minimum inhibitory concentrations (MIC) were determined by the serial dilution method (Cappuccino and Sherman, 1999[12]). The antimicrobial activity of the synthesized compounds was tested against a broad panel of microorganisms including two Gram-positive bacteria: Streptococcus pneumoniae (RCMB 010010) and Bacillus subtilis (RCMB 010067), two Gram-negative bacteria: Pseudomonas aeruginosa (RCMB 010043) and Escherichia coli (RCMB 010052), and four fungi: Aspergillus fumigatus (RCMB 02568), Syncephalastrum racemosum (RCMB 05922), Geotricum candidum (RCMB 05097), and Candida albicans (RCMB 05036). Ampicillin, ciprofloxacin, gentamicin and amphotericin B were used as positive control drugs (Atta-ur-Rahman and Thomsen, 2001[7]; Smania et al., 1999[57]). […] While in the case of Gm-ve bacteria, they had weak activity. In addition, certain strains of fungi were sensitive to tested compounds with an IZ range from 12-25 except Candida albicans.

[5] = system: Geotricum candidum (RCMB 05097); experiment: Well diffusion assay (inhibition zone); type: cell-based; details: 5 mg/mL in DMSO; fungi; read-out: Inhibition Zone (IZ) diameter, G.C
Experimental: as §3, §4

[6] = system: Escherichia coli (RCMB 010052); experiment: Well diffusion assay (inhibition zone); type: cell-based; details: RCMB010052, 5 mg/mL in DMSO, Gm-ve, read-out: Inhibition Zone (IZ) diameter, E.C
Experimental: as §3, §4

[7] = system: Aspergillus fumigatus (RCMB 02568); experiment: Well diffusion assay (inhibition zone); type: cell-based; details: RCMB02568, 5 mg/mL in DMSO, fungi, read-out: Inhibition Zone (IZ) diameter, A.F
Experimental: as §3, §4

[8] = system: Streptococcus pneumoniae (RCMB 010010); experiment: Well diffusion assay (inhibition zone); type: cell-based; details: RCMB010010, 5 mg/mL in DMSO, Gm+ve, read-out: Inhibition Zone (IZ) diameter, S.P
Experimental: as §3, §4

[9] = system: Bacillus subtilis (RCMB 010067); experiment: Well diffusion assay (inhibition zone); type: cell-based; details: RCMB010067, 5 mg/mL in DMSO, Gm+ve, read-out: Inhibition Zone (IZ) diameter, B.S
Experimental: as §3, §4

Row | Compound | melting point | IC50 [1] | IC50 [2] | IC50 [3] | zone of inhibition at 5000 µg/mL [4] | zone of inhibition at 5000 µg/mL [5] | zone of inhibition at 5000 µg/mL [6] | zone of inhibition at 5000 µg/mL [7] | zone of inhibition at 5000 µg/mL [8] | zone of inhibition at 5000 µg/mL [9] | IC50 HCT-116 [1] | IC50 MCF-7 ([2]; MCF-7)
1 | N#CC1=C(N)Oc2c(ccc3c(N)cccc23)C1c1cccs1 (stereo not shown) [7e, 2,7-Diamino-4-thiophen-2-yl-4H-benzo[h]chromene-3-carbonitrile] | 232 °C | 39.9 µg/mL (≈ 125 µM) | 61.9 µg/mL (≈ 194 µM) | 33.2 µg/mL (≈ 104 µM) | 14.2 mm | 16.9 mm | 15.2 mm | 16.4 mm | 16.3 mm | 18.2 mm |  | 
2 | O=c1[nH]cc(F)c(=O)[nH]1 [5-Flurouracil, reference compound] |  |  |  |  |  |  |  |  |  |  | 4.3 µg/mL (≈ 33.1 µM) | 3.9 µg/mL (≈ 30 µM)
3 | N#CC1=C(N)Oc2c(N)cc3ccccc3c2C1c1ccc(Cl)cc1Cl (stereo not shown) [4e, 3,5-Diamino-1-(2,4-dichloro-phenyl)-1H-benzo[f]chromene-2-carbonitrile] | 278 °C | 2 µg/mL (≈ 5.23 µM) | 1.5 µg/mL (≈ 3.92 µM) | 1 µg/mL (≈ 2.62 µM) |  |  |  |  |  |  |  | 
4 | COc1cccc2c1C(=O)c1c(O)c3c(c(O)c1C2=O)C[C@@](O)(C(=O)CO)C[C@@H]3O[C@H]1C[C@H](N)[C@H](O)[C@H](C)O1 [Doxorubicin, reference compound] |  | 0.88 µg/mL (≈ 1.62 µM) | 1.02 µg/mL (≈ 1.88 µM) | 1.19 µg/mL (≈ 2.19 µM) |  |  |  |  |  |  |  | 
5 | N#CC1=C(N)Oc2c(N)cc3ccccc3c2C1c1cccc(C(F)(F)F)c1F (stereo not shown) [4g, 3,5-Diamino-1-(2-fluoro-3-trifluoromethyl-phenyl)-1H-benzo[f]chromene-2-carbonitrile] | 202 °C | 30 µg/mL (≈ 75.1 µM) | 53.5 µg/mL (≈ 134 µM) | 32.4 µg/mL (≈ 81.1 µM) |  |  |  |  |  |  |  | 
6 | N#CC1=C(N)Oc2c(N)cc3ccccc3c2C1c1ccc(F)cc1F (stereo not shown) [4f, 3,5-Diamino-1-(2,4-difluoro-phenyl)-1H-benzo[f]chromene-2-carbonitrile] | 282 °C | 9.25 µg/mL (≈ 26.5 µM) | 6.38 µg/mL (≈ 18.3 µM) | 5.22 µg/mL (≈ 14.9 µM) |  |  |  |  |  |  |  | 
7 | CC(C)(C)c1ccc(C2C(C#N)=C(N)Oc3c2ccc2c(N)cccc32)cc1 (stereo not shown) [7a, 2,7-Diamino-4-(4-tert-butyl-phenyl)-4H-benzo[h]chromene-3-carbonitrile] | 210 °C | 14.3 µg/mL (≈ 38.7 µM) | 17.5 µg/mL (≈ 47.4 µM) | 11.9 µg/mL (≈ 32.2 µM) | 14.1 mm | 15.8 mm | 13.8 mm | 15.4 mm | 16.1 mm | 16.9 mm |  | 
8 | N#CC1=C(N)Oc2c(N)cc3ccccc3c2C1c1ccsc1 (stereo not shown) [4i, 3,5-Diamino-1-thiophen-3-yl-1H-benzo[f]chromene-2-carbonitrile] | 230 °C | 500 µg/mL (≈ 1570 µM) | 386 µg/mL (≈ 1210 µM) | 188 µg/mL (≈ 589 µM) |  |  |  |  |  |  |  | 
9 | COc1cc(C2C(C#N)=C(N)Oc3c(N)cc4ccccc4c32)cc(OC)c1OC (stereo not shown) [4h, 3,5-Diamino-1-(3,4,5-trimethoxy-phenyl)-1H-benzo[f]chromene-2-carbonitrile] | 225 °C | 500 µg/mL (≈ 1240 µM) | 500 µg/mL (≈ 1240 µM) | 500 µg/mL (≈ 1240 µM) |  |  |  |  |  |  |  | 
10 | CC[C@]1(O)C[C@@H]2CN(CCc3c([nH]c4ccccc34)[C@@](C(=O)OC)(c3cc4c(cc3OC)N(C)[C@H]3[C@@](O)(C(=O)OC)[C@H](OC(C)=O)[C@]5(CC)C=CCN6CC[C@]43[C@@H]65)C2)C1 [Vinblastine, reference compound] |  | 2.6 µg/mL (≈ 3.21 µM) | 6.1 µg/mL (≈ 7.52 µM) | 4.6 µg/mL (≈ 5.67 µM) |  |  |  |  |  |  |  | 

Continued, in another order:

Row | melting point | Compound | IC50 [1] | IC50 [2] | IC50 [3] | zone of inhibition at 5000 µg/mL [4] | zone of inhibition at 5000 µg/mL [5] | zone of inhibition at 5000 µg/mL [6] | zone of inhibition at 5000 µg/mL [7] | zone of inhibition at 5000 µg/mL [8] | zone of inhibition at 5000 µg/mL [9] | IC50 HCT-116 [1] | IC50 MCF-7 ([2]; MCF-7)
11 | 275 °C | CCCCc1ccc(C2C(C#N)=C(N)Oc3cc(O)c(N=Nc4ccc(S(=O)(=O)O)cc4)cc32)cc1 (stereo not shown) [13h, 4-[2-Amino-4-(4-butyl-phenyl)-3-cyano-7-hydroxy-4H-chromen-6-ylazo]-benzenesulfonic acid] | 88.6 µg/mL (≈ 176 µM) | 44.6 µg/mL (≈ 88.4 µM) | 40.4 µg/mL (≈ 80.1 µM) | 13.6 mm | 15.8 mm | 13.9 mm | 12.1 mm | 15.3 mm | 16.3 mm |  | 
12 | 330 °C | CC(C)(C)c1ccc(C2C(C#N)=C(N)Oc3cc(O)c(N=Nc4ccc(S(=O)(=O)O)cc4)cc32)cc1 (stereo not shown) [13g, 4-[2-Amino-4-(4-tert-butyl-phenyl)-3-cyano-7-hydroxy-4H-chromen-6-ylazo]-benzenesulfonic acid] | 100 µg/mL (≈ 198 µM) | 92.6 µg/mL (≈ 184 µM) | 81.3 µg/mL (≈ 161 µM) | 15.2 mm | 17.1 mm | 13.6 mm | 14.3 mm | 15.2 mm | 16.1 mm |  | 
13 | 290 °C | N#CC1=C(N)Oc2cc(O)c(N=Nc3ccc(S(=O)(=O)O)cc3)cc2C1c1ccccc1F (stereo not shown) [13f, 4-[2-Amino-3-cyano-4-(2-fluoro-phenyl)-7-hydroxy-4H-chromen-6-ylazo]-benzenesulfonic acid] | 100 µg/mL (≈ 214 µM) | 79.8 µg/mL (≈ 171 µM) | 68.4 µg/mL (≈ 147 µM) | 11.6 mm | 13.4 mm | 12.1 mm | 10.3 mm | 10.6 mm | 13.4 mm |  | 
14 | 203 °C | Cc1ccc(N=Nc2cc3c(cc2O)OC(N)=C(C#N)C3c2ccc(F)cc2)cc1 (stereo not shown) [13a, 2-Amino-4-(4-fluoro-phenyl)-7-hydroxy-6-p-tolylazo-4H-chromene-3-carbonitrile] |  |  |  | 17.3 mm | 21.4 mm | 14.4 mm | 20.4 mm | 19.6 mm | 23.7 mm |  | 
15 | 254 °C | N#CC1=C(N)Oc2cc(O)c(N=Nc3ccc([N+](=O)[O-])cc3)cc2C1c1ccc(F)cc1 (stereo not shown) [13c, 2-Amino-4-(4-fluoro-phenyl)-7-hydroxy-6-(4-nitro-phenylazo)-4H-chromene-3-carbonitrile] | 12.2 µg/mL (≈ 28.3 µM) | 10.8 µg/mL (≈ 25 µM) | 10.4 µg/mL (≈ 24.1 µM) | 10.4 mm |  | 9.4 mm | 13.6 mm | 14.6 mm | 14.3 mm |  | 
